Patent publication US8673914B2, “Use of phosphodiesterase inhibitors for treating multidrug resistance” (St. John's University, priority 2011, dated 2014)

Legend:
ABCG2-482-R2 (ABCG2) = experiment: MTT cytotoxicity/reversal assay (Example 1); details: +10 μM reversal agent
Description: The KB-C2 and KB-3-1 were kindly provided by Dr. Akiyama (Kagoshima University, Japan). HEK293-pcDNA3.1 and wild-type HEK/ABCG2 transfected cells were established by selection with G418 after transfecting HEK293 with either (1) empty pcDNA3.1 vector or (2) pcDNA3.1 vector containing full length of ABCG2 coding arginine (R) at amino acid position 482, and were then cultured in a medium with 2 mg/ml of G418 (ABCG2-482-R2 cells). Similarly, the HEK/MRP1 (ABCC1) and HEK/ABCB1 cells were generated by transfecting the HEK293 cells with either the MRP1 expression vector or the ABCB1 expression vector. All of the cell lines were grown in Dulbecco's modified Eagle's medium (DMEM) supplemented with 10% bovine serum, 100 units/ml penicillin, and […] streptomycin in a humidified incubator containing 5% CO2 at 37° C.
The MTT assay was used to assess cytotoxicity. The cultured cells were harvested with trypsin and resuspended in a final concentration of 4×10^3 cells/well for KB-3-1; 7.5×10^3 cells/well for KB-C2; and 8×10^3 for all of the other cell lines used in this study. Cells were seeded evenly in 96-well multiplates. […] After 68 h of incubation, 20 μl of the MTT solution (4 mg/ml) was added to each well, and the plate was further incubated for 4 h at 37° C., allowing viable cells to convert the yellow-colored MTT into dark-blue formazan crystals. Subsequently, the medium was discarded, and 100 μl of DMSO was added into each well to dissolve the formazan crystals, generating purple color. The absorbance was determined at 570 nm by an OPSYS Microplate Reader from DYNEX Technologies, Inc. (Chantilly, Va.). […] The degree of the reversal of multidrug resistance (MDR) was calculated by dividing the IC50 of an anticancer drug, e.g., an antineoplastic or chemotherapeutic drug (agent, compound), in a cell type in the absence of a reversal agent by the IC50 of the anticancer drug in the same cell type in the presence of the reversal agent. The IC50 values were calculated from survival curves using the Bliss method.

[1] = test system: ABCB1 expression in KB-C2 cells; experiment: Western blot and immunofluorescence of ABCB1; format: cell-based, human; details: for protein level of ABCB1 (Western blot): 10 μM, 36 and 72 h; for expression of ABCB1 in the membrane (immunofluorescence): 72 h
Description: Following incubation, the cells were harvested and rinsed twice with ice-cold PBS, and total cell lysates were collected with cell lysis buffer (1×PBS, 1% Nonidet P-40, 0.5% sodium deoxycholate, 0.1% SDS, 100 μg/ml phenylmethylsulfonyl fluoride, 10 μg/ml aprotinin, 10 μg/ml leupeptin) for 30 min with gentle rocking, and clarified by centrifugation at 12,000 rpm for 10 min at 4° C. Equal amounts (100 μg of protein) of cell lysates were resolved by sodium dodecyl sulfate polyacrylamide gel electrophoresis (SDS-PAGE) and electrophoretically transferred onto polyvinylidene fluoride (PVDF) membranes. After incubation in a blocking solution containing 5% nonfat milk in TBST buffer (10 mM Tris-HCL (pH 8.0), 150 mM NaCl, and 0.1% Tween 20) for 1 h at room temperature, membranes were immunoblotted overnight with primary monoclonal antibodies C219 (1:200) against ABCB1, or 14C10 (1:200) against GAPDH, at 4° C. Subsequently, the membranes were washed three times for 15 min with TBST buffer and incubated at room temperature for 2 h with HRP-conjugated secondary antibody at 1:1000 dilutions. The membranes underwent three additional washes for 15 min with TBST buffer and the protein-antibody complexes were visualized by the enhanced PHOTOTOPE® HRP Detection Kit (Cell Signaling Technology, Inc.) and exposed to Kodak medical X-ray processor (Eastman Kodak Co., Rochester, N.Y.). […] Propidium iodide was used for nuclear staining.

ABCB1 [2] = biological target: T1, ABCB1 (Homo sapiens, UniProt P08183); experiment: Vi-sensitive ATPase assay of ABCB1 (Example 1); format: biochemical; details: ABCB1 membrane vesicles; read-out: concentration required for 50% stimulation of ATPase activity
T1 construct: made in house; host or cells: High Five insect cells (membrane vesicles / crude membranes)
Description: The Vi-sensitive ATPase activity of ABCB1 in membrane vesicles of High Five™ insect cells was measured as follows. The membrane vesicles ([…]) were incubated in ATPase assay buffer (50 mM MES [pH 6.8], 50 mM KCl, 5 mM sodium azide, 2 mM EGTA, 2 mM dithiothreitol, 1 mM ouabain, and 10 mM MgCl2) with or without 0.3 mM orthovanadate (freshly prepared) at 37° C. for 5 min, then incubated with different concentrations of drug at 37° C. for 3 min. The ATPase reaction was started by the addition of 5 mM ATP, and the total volume was 0.1 ml. After incubation at 37° C. for 20 min, the reactions were stopped by the addition of 0.1 ml of 5% SDS solution and vortexed and kept at room temperature. The liberated Pi was measured as described in Ambudkar et al., supra.

ABCB1 [3] = biological target: T1, ABCB1; experiment: Photoaffinity labeling with [^125I]-IAAP (Example 1); format: binding; details: for IC50: ABCB1 membrane vesicles
Description: The photoaffinity labeling of ABCB1 with [^125I]-IAAP was performed as described in Sauna et al. (2000) Proc. Natl. Acad. Sci. USA 97:2515-20. The membrane vesicles from High Five™ insect cells expressing ABCB1 (50 μg of protein) were incubated at room temperature with different concentrations of drugs in the ATPase assay buffer with [^125I]-IAAP (7 nM) for 5 min under subdued light. […] Subsequently, the samples were run in a 7% Tris-acetate NuPAGE gel on SDS-PAGE; and the gels were dried and exposed to Bio-Max MR film (Eastman Kodak Co., Rochester, N.Y.) at −70° C. for 8-12 h. The radioactivity incorporated into the ABCB1 band was quantified using the STORM 860 PhosphorImager system and ImageQuaNT (Molecular Dynamics, CA).

[4] = test system: MRP7 localization in HEK/MRP7 cells; experiment: Immunofluorescence of MRP7; format: cell-based; details: 5 μM; 72 h
Description: HEK/MRP7 cells (1×10^4) were seeded in 24 well plates and cultured overnight. […] Cells were washed with PBS and fixed with 4% paraformaldehyde for 15 min at room temperature and then rinsed with PBS three times. Nonspecific reaction was blocked with 1% BSA for 1 h at room temperature. A polyclonal antibody D19 against MRP7 (1:200) was added and incubated overnight. […] DAPI was used for nuclear staining. Immunofluorescent images were taken with an inverted microscope (model IX70; Olympus, Center Valley, Pa.) with IX-FLA fluorescence and CCD camera.

T1 sequence (P08183 whole entry): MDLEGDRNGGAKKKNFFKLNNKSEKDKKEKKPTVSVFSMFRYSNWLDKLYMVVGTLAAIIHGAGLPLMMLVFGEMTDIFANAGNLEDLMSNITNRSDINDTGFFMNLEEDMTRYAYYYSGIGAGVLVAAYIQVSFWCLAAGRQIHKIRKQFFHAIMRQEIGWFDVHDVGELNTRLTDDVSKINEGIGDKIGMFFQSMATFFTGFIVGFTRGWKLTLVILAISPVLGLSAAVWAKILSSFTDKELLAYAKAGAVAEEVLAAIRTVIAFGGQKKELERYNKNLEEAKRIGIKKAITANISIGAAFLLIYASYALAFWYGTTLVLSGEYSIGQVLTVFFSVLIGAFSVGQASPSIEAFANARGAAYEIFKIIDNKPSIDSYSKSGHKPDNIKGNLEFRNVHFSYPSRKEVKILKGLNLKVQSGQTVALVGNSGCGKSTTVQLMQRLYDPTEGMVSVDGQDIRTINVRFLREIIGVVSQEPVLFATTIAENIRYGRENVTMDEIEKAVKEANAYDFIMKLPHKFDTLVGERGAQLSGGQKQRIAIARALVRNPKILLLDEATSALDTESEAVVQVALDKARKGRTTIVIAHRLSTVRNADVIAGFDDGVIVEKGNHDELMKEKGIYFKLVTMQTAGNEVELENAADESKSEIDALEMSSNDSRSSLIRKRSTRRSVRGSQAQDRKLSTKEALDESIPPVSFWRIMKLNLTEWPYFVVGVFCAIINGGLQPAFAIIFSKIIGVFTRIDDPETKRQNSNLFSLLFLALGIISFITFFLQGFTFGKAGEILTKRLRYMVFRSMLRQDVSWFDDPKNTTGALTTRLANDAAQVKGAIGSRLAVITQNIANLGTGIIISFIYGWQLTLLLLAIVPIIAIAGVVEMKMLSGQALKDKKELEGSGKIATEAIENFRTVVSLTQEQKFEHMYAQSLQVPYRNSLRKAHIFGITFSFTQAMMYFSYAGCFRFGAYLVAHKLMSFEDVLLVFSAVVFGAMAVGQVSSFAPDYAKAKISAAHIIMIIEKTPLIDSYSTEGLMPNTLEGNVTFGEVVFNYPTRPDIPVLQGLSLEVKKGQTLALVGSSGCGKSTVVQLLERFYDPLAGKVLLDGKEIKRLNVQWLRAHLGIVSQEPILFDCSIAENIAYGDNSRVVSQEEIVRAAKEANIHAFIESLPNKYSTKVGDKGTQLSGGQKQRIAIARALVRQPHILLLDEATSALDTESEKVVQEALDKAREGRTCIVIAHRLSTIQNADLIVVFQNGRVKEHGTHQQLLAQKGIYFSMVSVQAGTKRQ

| EC50 (ABCB1 [2]) [nM] | IC50 (ABCB1 [3]) [nM] | inhibition at 5 min, 10 µM (ABCB1 [3]; pH 6.8, probe [125I]-IAAP (7 nM), 10 μM, read-out: inhibition of [^125I]-IAAP photolabeling) [%] | Compound | fold reversal, SN-38 (ABCG2-482-R2 (ABCG2)) | protein level of ABCB1 (Western blot) [1] | expression of ABCB1 in the membrane (immunofluorescence) [1] | MRP7 protein localization in plasma membranes [4] |
| --- | --- | --- | --- | --- | --- | --- | --- |
| > 25000 | > 50000 |  | CN1CC(=O)N2[C@H](c3ccc4c(c3)OCO4)c3[nH]c4ccccc4c3C[C@@H]2C1=O [Tadalafil, tadalafil] | (1.04) | not significantly altered | neither vardenafil nor tadalafil altered the expression of ABCB1 in the membrane | no alteration of MRP7 protein localization |
| 2690 ± 720 | 690 | 90 | CCCc1nc(C)c2c(=O)[nH]c(-c3cc(S(=O)(=O)N4CCN(CC)CC4)ccc3OCC)nn12 [Vardenafil, vardenafil] | (0.97) | not significantly altered | neither vardenafil nor tadalafil altered the expression of ABCB1 in the membrane | no alteration of MRP7 protein localization |
